# Experimental data published in patent EP0968998A1, “Cosmetic compositions, ceramide analogues with anti-elastase activity and process for their preparation” (ELF ATOCHEM S.A., priority 1998, dated 2000).
# Molecular target: T1, élastase de leucocytes humains (Homo sapiens, UniProt P08246)
# T1 construct: purchased Elastin Products Co. SE 563; host or cells: human leukocytes, as the enzyme's name says
# T1 sequence (P08246 30-267): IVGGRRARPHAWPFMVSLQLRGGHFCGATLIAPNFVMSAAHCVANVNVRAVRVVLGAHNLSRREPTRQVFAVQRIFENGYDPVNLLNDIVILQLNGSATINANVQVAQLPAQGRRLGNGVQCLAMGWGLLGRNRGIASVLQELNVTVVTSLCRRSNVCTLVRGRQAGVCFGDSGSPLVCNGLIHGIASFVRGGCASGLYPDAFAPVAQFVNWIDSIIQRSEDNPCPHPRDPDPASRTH
# Experiment: Anti-elastase activity: release of p-nitroaniline from N-succinyl-(Ala)3-p-nitroanilide, spectrophotometry at 410 nm
# Format: biochemical
# Conditions: pH 8, 37°C, pH8, 5 min preincubation, substrate 250 µM, read-out: % I (%); for inhibition at 250 µM: Concentration 250 µM; for inhibition at 500 µM: Concentration 500 µM
# Excerpt: Les exemples qui suivent permettent d'illustrer l'invention. Dans ces exemples, on utilise les méthodes d'analyse suivantes : - Spectrographie infrarouge (IR) Les spectres sont réalisés au moyen d'un appareil PERKIN ELMER 1760 IRTF, en dispersion dans KBr à 1 %. Les valeurs sont exprimées en nombre d'onde par centimètre. - Résonance magnétique nucléaire (RMN) Les spectres sont réalisés au moyen d'un appareil BRUCKER DRX 500, à 500 MHz (^1H) et 125 MHz (^13C) dans le DMSO-d6. La calibration de l'appareil est effectuée au moyen de DMSO. Les déplacements chimiques sont exprimés en ppm. L'aspect des signaux est noté : singulet (s), doublet (d), triplet (t), quadruplet (q), multiplet (m), quintuplet (*5) et couplage AB (AB). - Mesure de l'activité anti-élastase L'activité anti-élastase est mesurée selon la méthode qui consiste à faire réagir l'élastase de leucocytes humains (référence SE 563; Elastin Products Co.; Owensville, MO, USA) avec le N-succinyl-(Ala)3-p-nitroanilide (réf. S4760; Sigma) et mesurer la libération de p-nitroaniline. On utilise le N-succinyl-(Ala)3-p-nitroanilide en solution dans le tétrahydrofurane et une solution d'élastase à 100 mg/ml dans un mélange de glycérol et de tampon acétate de sodium (50/50; v/v), pH5. L'activité de l'enzyme est mesurée à 37°C dans 100 mM de tampon Tris-HCI, pH8 contenant 0,01 % de Triton X-100 (volume/volume) et 0,02 % d'azide de sodium (poids/volume). Le céramide à tester, solubilisé dans le tétrahydrofurane (concentration en THF = 0,5 % en volume) est préincubé en présence de l'enzyme (0,05 mg/ml) dans le tampon pendant 5 minutes à 37°C. On ajoute le N-succinyl-(Ala)3-p-nitroanilide (concentration finale : 250 µM) et on mesure la libération de la p-nitroaniline dans une cuve en quartz par spectrophotométrie à 410 nm. La capacité inhibitrice du céramide est exprimée en pourcentage d'inhibition (% I) selon la relation : %I = (1 -(Vi)/(Vo))×100 [formula] dans laquelle Vi et Vo sont les vitesses d'apparition de la p-nitroaniline en présence et en absence d'inhibiteur respectivement. - Mesure de l'amélioration de la barrière cutanée a) mesure de la Perte Insensible en Eau (PIE) La mesure de la PIE permet de quantifier la très faible quantité d'eau qui diffuse passivement à travers le stratum corneum. Ce paramètre représente un très bon index de la fonction barrière du stratum corneum. Cette méthode est surtout utilisée pour contrôler l'efficacité de formules cosmétiques qui, contenant certains types de lipides sont capables de diminuer la PIE et, en conséquence, d'empêcher la déshydratation du stratum corneum. La sonde est laissée en contact de la peau pendant 2 minutes environ de façon à atteindre une position d'équilibre. PIE = D'(dP)/(dx)(gradient de pression de vapeur) [formula] Les valeurs sont exprimées en g/m^2/heure et permettent de calculer un delta de PIE = PIE (peau traitée) - PIE (peau témoin). L'appareil utilisé est un Evaporimètre EPI de Servomed. Les mesures sont effectuées sur deux groupes de 15 volontaires sains ayant une peau sèche, avant l'application du produit (t=0) et après l'application (t=0,5 heure, 1 heure, 3 heures et 6 heures) sur la face interne des deux avant-bras. L'analogue de céramide selon l'invention ou le céramide témoin est incorporé dans une crème ayant la composition suivante (en % en poids) : […]
inhibition at 250 µM [%],inhibition at 500 µM [%],Compound
81,100,"CCCCCCCCCCCCC/C=C/[C@@H](O)[C@H](CO)NC(=O)CCCCCCCCCCCCCCC [Référence (a), N-palmitoyl-D-érythro-1,3-dihydroxy-2-amino-4-trans octadécène, reference compound]"
33,43,"CCCCCCCCCCCCCCCC(=O)NC(CC)(CO)COC(=O)CCCCCCCCCCCCCCC (centres unmarked) [Exemple 3, 1-palmitoyl-2-éthyl-2-palmitoylamino-1,3-propanediol]"
44,50,"CCCCCCCCCCCCCCCCCC(=O)N[C@@H](CO)[C@H](O)[C@H](O)CCCCCCCCCCCCCC [Référence (b), N-stéaroyl-phytosphingosine, reference compound]"
55,66,"CCCCCCCCCCCCCCCC(=O)NC(CO)COC(=O)CCCCCCCCCCCCCCC (centres unmarked) [Exemple 1, 1-palmitoyl-2-palmitoylamino-1,3-propanediol]"
